Data taken from US20070293530A1, “SULFAMIDE AND SULFAMATE DERIVATIVES AS HISTONE DEACETYLASE INHIBITORS” (METHYLGENE INC., priority 2006, published 2007).

Target: HDAC enzyme
Test: Inhibition of Histone Deacetylase Enzymatic Activity (Assay Examples 1 and 2)
Assay type: biochemical
Conditions: HDAC isoform not specified; fluorogenic Boc-Lys(Ac)-AMC or Boc-Lys(trifluoroacetyl)-AMC substrate
Method: The following protocol is used to assay the compounds of the invention. In the assay, the buffer used is 25 mM HEPES, pH 8.0, 137 mM NaCl, 2.7 mM KCl, 1 mM MgCl2 and the subtrate is Boc-Lys(Ac)-AMC in a 50 mM stock solution in DMSO. The enzyme stock solution is 4.08 μg/mL in buffer.
The compounds are pre-incubated (2 μl in DMSO diluted to 13 μl in buffer for transfer to assay plate) with enzyme (20 μl of 4.08 μg/ml) for 10 minutes at room temperature (35 μl pre-incubation volume). The mixture is pre-incubated for 5 minutes at room temperature. The reaction is started by bringing the temperature to 37° C. and adding 16 μl substrate. Total reaction volume is 50 μl. The reaction is stopped after 20 minutes by addition of 50 μl developer, prepared as directed by Biomol (Fluor-de-Lys developer, Cat. #KI-105). A plate is incubated in the dark for 10 minutes at room temperature before reading (λEx=360 nm, λEm=470 nm, Cutoff filter at 435 nm).
Alternatively, HDAC inhibitory activity was determined using the following assay.
A 30 mM stock of Boc-Lys(trifluoroacetyl)-AMC substrate is prepared in DMSO. 2 μL of test compound in DMSO is diluted to 50 μL in buffer (25 mM HEPES, pH 8.0, 137 mM NaCl, 2.7 mM KCl, 1 mM MgCl2, 0.1% BSA) and pre-incubated with HDAC enzyme (30 μL of a final enzyme concentration of 0.1-0.2 nM) for 10 minutes at room temperature. Reaction is started by adding 18 μL Boc-Lys(trifluoroacetyl)-AMC substrate and incubating at 37° C. for 20-30 minutes. The reaction is stopped by adding 50 μL trypsin (1 mg/mL) and a known HDAC inhibitor (such as LAQ-824). The plate is then incubated in the dark for 20 minutes at room temperature and read with Ex=360 nm, Em=470 nm, cutoff filter at 435 nm.
In the table, A≦0.2 μM; 0.2 μM<B≦0.5 μM; […]; and 1 μM<D≦6 μM.

IC50 [nM]	Structure (SMILES)
≤ 200	NS(=O)(=O)NCCCCCC(=O)Nc1cccc(-c2ccccc2)c1 [Compound 4, N-(Biphenyl-3-yl)-6-(sulfamoylamino)hexanamide]
≤ 200	CC(=O)N[C@@H](CCCCNS(N)(=O)=O)C(=O)Nc1cccc2cccnc12 [Compound 34, (S)-2-Acetamido-N-(quinolin-8-yl)-6-(sulfamoylamino)hexanamide]
200 to 500	NS(=O)(=O)NCCCC[C@H](NC(=O)c1cc2ccccc2o1)C(=O)Nc1cccc2cccnc12 [Compound 51, (S)-N-(1-oxo-1-(quinolin-8-ylamino)-6-(sulfamoyl-amino)-hexan-2-yl)-benzofuran-2-carboxamide]
≤ 200	NS(=O)(=O)NCCCC[C@H](NC(=O)OCc1ccccc1)C(=O)Nc1cccc2cccnc12 [Compound 55, (S)-benzyl 1-oxo-1-(quinolin-8-ylamino)-6-(sulfamoyl-amino)-hexan-2-ylcarbamate]
≤ 200	NS(=O)(=O)NCCCC[C@H](NC(=O)OCc1ccccc1)C(=O)Nc1nc(-c2ccccc2)cs1 [Compound 60, (S)-benzyl 1-oxo-1-(4-phenylthiazol-2-ylamino)-6-(sulfamoyl-amino)-hexan-2-ylcarbamate]
200 to 500	COc1ccc2[nH]c(C)c(CC(=O)N[C@@H](CCCCNS(N)(=O)=O)C(=O)Nc3cccc4cccnc34)c2c1 [Compound 62, (S)-2-(2-(5-methoxy-2-methyl-1H-indol-3-yl)acetamido)-N-(quinolin-8-yl)-6-(sulfamoyl-amino)-hexanamide]
≤ 200	NS(=O)(=O)NCCCCCC(=O)Nc1cc(OCc2ccccn2)cc2cccnc12 [Compound 79, N-(6-(pyridin-2-ylmethoxy)-quinolin-8-yl)-6-(sulfa-moylamino)-hexanamide]
200 to 500	COc1ccc(S(=O)(=O)N[C@@H](CCCCNS(N)(=O)=O)C(=O)Nc2cccc3cccnc23)cc1OC [Compound 201, (S)-2-(3,4-dimethoxyphenylsulfonamido)-N-(quinolin-8-yl)-6-(sulfamoylamino)hexanamide]
200 to 500	NS(=O)(=O)NCCCC[C@H](NC(=O)NCc1ccccc1)C(=O)Nc1cccc2cccnc12 [Compound 203, (S)-2-(3-benzylureido)-N-(quinolin-8-yl)-6-(sulfamoylamino)hexanamide]
200 to 500	COc1ccc(C(=O)N[C@@H](CCCCNS(N)(=O)=O)C(=O)Nc2cccc3cccnc23)cc1OC [Compound 207, (S)-3,4-dimethoxy-N-(1-oxo-1-(quinolin-8-ylamino)-6-(sulfamoyl-amino)hex-an-2-yl)-benzamide]
200 to 500	NS(=O)(=O)NCCCC[C@H](NC(=O)c1cccc2cccnc12)C(=O)Nc1cccc2cccnc12 [Compound 209, (S)-N-(1-oxo-1-(quinolin-8-ylamino)-6-(sulfamoyl-amino)hex-an-2-yl)-quinoline-8-carboxamide]
≤ 200	NS(=O)(=O)NCCCC[C@H](NC(=O)Nc1ccccc1)C(=O)Nc1cccc2cccnc12 [Compound 211, (S)-2-(3-phenyl-ureido)-N-(quinolin-8-yl)-6-(sulfa-moylamino)-hexanamide]
≤ 200	NS(=O)(=O)NCCCC[C@H](NC(=O)Cc1ccccc1)C(=O)Nc1nc(-c2ccccc2)cs1 [Compound 230a, (S)-2-(2-phenylacetamido)-N-(4-phenylthiazol-2-yl)-6-(sulfamoylamino)hexanamide]
200 to 500	NS(=O)(=O)NCCCC[C@H](NC(=O)NCc1ccc(F)cc1)C(=O)Nc1nc(-c2ccccc2)cs1 [Compound 240, (S)-2-(3-(4-fluoro-benzyl)-ureido)-N-(4-phenyl-thiazol-2-yl)-6-(sulfa-moylamino)-hexanamide]
≤ 200	NS(=O)(=O)NCCCC[C@H](NC(=O)OCc1cccc(Cl)c1)C(=O)Nc1nc(-c2ccccc2)cs1 [Compound 242, (S)-3-chlorobenzyl 1-oxo-1-(4-phenyl-thiazol-2-ylamino)-6-(sulfa-moylamino)-hexan-2-ylcarbamate]
200 to 500	CCOC(=O)N[C@@H](CCCCNS(N)(=O)=O)C(=O)Nc1nc(-c2ccccc2)cs1 [Compound 252, (S)-ethyl 1-oxo-1-(4-phenylthiazol-2-ylamino)-6-(sulfamoylamino)hexan-2-ylcarbamate]

IC50 [nM]	Structure (SMILES)
≤ 200	COc1cc(NC(=O)[C@H](CCCCNS(N)(=O)=O)NC(=O)OCc2ccccc2)c2ncccc2c1 [Compound 270, (S)-benzyl 1-(6-methoxy-quinolin-8-ylamino)-1-oxo-6-(sulfamoyl-amino)-hexan-2-ylcarbamate]
≤ 200	NS(=O)(=O)NCCCC[C@H](NC(=O)OCc1ccccc1)C(=O)Nc1cnc2ccccc2c1 [Compound 274, (S)-benzyl 1-oxo-1-(quinolin-3-ylamino)-6-(sulfamoyl-amino)-hexan-2-ylcarbamate]
200 to 500	COc1ccc(-c2nc(NC(=O)[C@H](CCCCNS(N)(=O)=O)NC(=O)OCc3ccccc3)sc2C)cc1 [Compound 289, (S)-benzyl 1-(4-(4-methoxy-phenyl)-5-methyl-thiazol-2-ylamino)-1-oxo-6-(sulfamoyl-amino)-hexan-2-ylcarbamate]
≤ 200	NS(=O)(=O)NCCCC[C@H](NC(=O)OCc1ccccc1)C(=O)Nc1nc(-c2ccc(C(F)(F)F)cc2)cs1 [Compound 308, (S)-benzyl 1-oxo-6-(sulfamoyl-amino)-1-(4-(4-(trifluoro-methyl)-phenyl)-thiazol-2-ylamino)-hexan-2-ylcarbamate]
200 to 500	COc1cccc(-c2csc(NC(=O)[C@H](CCCCNS(N)(=O)=O)NC(=O)OCc3ccccc3)n2)c1 [Compound 309, (S)-benzyl 1-(4-(3-methoxy-phenyl)-thiazol-2-ylamino)-1-oxo-6-(sulfamoyl-amino)-hexan-2-ylcarbamate]
≤ 200	NS(=O)(=O)NCCCC[C@H](NC(=O)OCc1ccccc1)C(=O)Nc1cccc(-c2ccccc2)c1 [Compound 310, (S)-benzyl 1-(biphenyl-3-ylamino)-1-oxo-6-(sulfamoyl-amino)-hexan-2-ylcarbamate]
≤ 200	NS(=O)(=O)NCCCC[C@H](NC(=O)OCc1ccccc1)C(=O)Nc1nc(C(=O)Nc2ccccc2)cs1 [Compound 313, (S)-benzyl 1-oxo-1-(4-(phenyl-carbamoyl)-thiazol-2-ylamino)-6-(sulfamoyl-amino)-hexan-2-ylcarbamate]
≤ 200	COc1ccc(NC(=O)c2csc(NC(=O)[C@H](CCCCNS(N)(=O)=O)NC(=O)OCc3ccccc3)n2)cc1 [Compound 314, (S)-benzyl 1-(4-(4-methoxy-phenyl-carbamoyl)-thiazol-2-ylamino)-1-oxo-6-(sulfamoyl-amino)-hexan-2-ylcarbamate]
200 to 500	NS(=O)(=O)NCCCC[C@H](NC(=O)OCc1ccccc1)C(=O)Nc1nc(-c2ccc(F)cc2)cs1 [Compound 318, (S)-benzyl 1-(4-(4-fluoro-phenyl)-thiazol-2-ylamino)-1-oxo-6-(sulfamoyl-amino)-hexan-2-ylcarbamate]
≤ 200	COC(=O)N[C@@H](CCCCNS(N)(=O)=O)C(=O)Nc1nc(-c2ccccc2)cs1 [Compound 319, (S)-methyl 1-oxo-1-(4-phenyl-thiazol-2-ylamino)-6-(sulfamoyl-amino)-hexan-2-ylcarbamate]
≤ 200	COc1ccc(-c2nc([C@H](CCCCNS(N)(=O)=O)NC(=O)OCc3ccccc3)c[nH]2)cc1 [Compound 327, (S)-benzyl 1-(2-(4-methoxyphenyl)-1H-imidazol-4-yl)-5-(sulfamoylamino)pentylcarbamate]
≤ 200	NS(=O)(=O)NCCCC[C@H](NC(=O)OCc1ccccc1)c1n[nH]c(-c2ccccc2)n1 [Compound 335, (S)-benzyl 1-(5-phenyl-1H-1,2,4-triazol-3-yl)-5-(sulfamoylamino)pentylcarbamate]
200 to 500	Cc1ccc(-c2nc([C@H](CCCCNS(N)(=O)=O)NC(=O)OCc3ccccc3)c[nH]2)cc1 [Compound 348, (S)-benzyl 5-(sulfamoyl-amino)-1-(2-p-tolyl-1H-imidazol-4-yl)pentyl-carbamate]
200 to 500	NS(=O)(=O)NCCCC[C@H](NC(=O)OCc1ccccc1)c1csc(-c2ccc(Br)cc2)n1 [Compound 361, (S)-benzyl 1-(2-(4-bromo-phenyl)-thiazol-4-yl)-5-(sulfamoyl-amino)-pentyl-carbamate]
500 to 1000	NS(=O)(=O)NCCCC[C@H](NC(=O)OCc1ccccc1)c1csc(Nc2ccccc2)n1 [Compound 364, (S)-benzyl 1-(2-(phenyl-amino)-thiazol-4-yl)-5-(sulfamoyl-amino)-pentyl-carbamate]

Structure (SMILES)	IC50 [nM]
COc1cc(NC(=O)CCCCCNS(N)(=O)=O)c2ncccc2c1 [Compound 40, N-(6-methoxy-quinolin-8-yl)-6-(sulfamoyl-amino)-hexanamide]	≤ 200
